Laboratory results reported in paper PMC8355244, “A fragment-based approach identifies an allosteric pocket that impacts malate dehydrogenase activity” (Communications Biology, 2021).
Like-named read-outs stand apart in the source and are kept apart here.

Molecular target: T1, WT PfMDH (Plasmodium falciparum, UniProt Q6VVP7)
T1 construct: The full-length WT PfMDH gene was cloned into pETM-13; made in house; host or cells: E. coli Rosetta 2 (DE3) pLysS
Assay: Activity screening of 4DT / 4-phenylthiazol-2-amine derivatives (oxidation of malate, absorbance at 340 nm)
Assay type: biochemical
Conditions: for inhibition at 500 µM: Dunnett's multiple comparisons test, read-out: Mean Diff. (positive control vs. compound); for Slope repl1 / Slope repl2: linear regression slope of absorbance 340 nm vs time; for Slope normalized repl1: slope relative to control = 1, replicate 1; for Slope normalized repl2: slope relative to control = 1, replicate 2
Experimental: The oxidation of malate to oxaloacetate was assayed spectrophotometrically in flat-bottomed Corning 96-well microplates in a total volume of 250.0 µl in 50 mM glycine buffer pH 10.2[24] with an additional 400 mM NaCl for protein stability. The increase of absorbance at 340 nm was recorded in kinetic mode using a Tecan Spark multimode microplate reader at 298 K. A mastermix of 50 mM NAD+ and 44 μM PfMDH was used for both the screening and kinetics experiments. The final concentration of protein and cofactor were […], respectively. Positive control groups were set (absence of compound) in the same plate as the treated group. The absorbance from the background noise was subtracted from the data and then a linear regression model was employed in order to get the line slope from the first 5 min of the reaction. The percentage of enzymatic activity has been calculated as described by Eq. (1)1 enzymeactivity(%)=slopetreated/slopepositivecontrol*100
1.3 µL of derivatives of 4-phenylthiazol-2-amine in 100% DMSO were mixed with 237.7 µL of a mastermix of WT PfMDH previously incubated with NAD+. The final compound concentration used in this screening was 500 µM in the presence of 0.5% (v/v) DMSO. The microplate was sealed with silver foil for 1-h incubation at 25–35 °C. Finally, reactions in both the samples and control wells were started upon the addition of 13.0 µL of 5 mM malate). At the end of the experiments, the reaction of the plate was spectrophotometrically assayed at 600 nm in order to identify turbidity due to the low solubility of the compound. All measurements were performed in duplicate.

[1] = 500 µM compound, Dunnett test details, positive control mean 100, n 2, read-out: Mean 2 (mean % enzymatic activity of treated group)
[2] = 500 µM compound, control 100%, replicate 1, read-out: % enzymatic activity repl1
[3] = 500 µM compound, control 100%, replicate 2, read-out: % enzymatic activity repl2

T1 sequence (Q6VVP7 entry or part of it): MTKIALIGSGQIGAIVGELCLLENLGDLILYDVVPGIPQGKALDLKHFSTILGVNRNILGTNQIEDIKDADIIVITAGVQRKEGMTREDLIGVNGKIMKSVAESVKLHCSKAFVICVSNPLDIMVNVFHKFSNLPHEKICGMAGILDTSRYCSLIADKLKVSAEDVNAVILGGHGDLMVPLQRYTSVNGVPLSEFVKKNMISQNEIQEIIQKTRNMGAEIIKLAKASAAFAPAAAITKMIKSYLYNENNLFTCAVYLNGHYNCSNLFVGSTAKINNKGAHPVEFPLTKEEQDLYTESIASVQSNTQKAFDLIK

For `Nc1cc(-c2ccccc2)[nH]n1` [5b], the remaining activity at 500 µM [1] was 53%, the inhibition at 500 µM (500 µM compound) was 47.5% and the remaining activity at 500 µM [2] was 63%. The remaining activity at 500 µM [3] was 42%, the “Slope repl1” value (500 µM compound, replicate 1) was 0.02092 and the “Slope repl2” value (500 µM compound, replicate 2) was 0.01483. For the same compound, the “Slope normalized repl1” value (500 µM compound) was 0.628, the “Slope normalized repl2” value (500 µM compound) was 0.4232 and the remaining activity at 500 µM (read-out: enzyme activity) was 53%.

With `O=C(O)c1cc(-c2cccs2)on1` [compound 1b] the remaining activity at 500 µM [1] was 60%, the inhibition at 500 µM (500 µM compound) was 40.5% and the remaining activity at 500 µM [2] was 65%. For the same compound, the remaining activity at 500 µM [3] was 54%, the “Slope repl1” value (500 µM compound, replicate 1) was 0.0217 and the “Slope repl2” value (500 µM compound, replicate 2) was 0.019. The “Slope normalized repl1” value (500 µM compound) was 0.6515, the “Slope normalized repl2” value (500 µM compound) was 0.5422 and the remaining activity at 500 µM (read-out: enzyme activity) was 60%.

For `Cc1c(CO)cnn1-c1ccccc1` [compound 6b], the enzyme activity (500 µM compound, 0.5% DMSO, vs control, mean of n = 2) was “no statistical difference with the control”, the remaining activity at 500 µM [1] was 80% and the inhibition at 500 µM (500 µM compound) was 20%. For the same compound, the remaining activity at 500 µM [2] was 80%, the remaining activity at 500 µM [3] was 80% and the “Slope repl1” value (500 µM compound, replicate 1) was 0.02662. The “Slope repl2” value (500 µM compound, replicate 2) was 0.02788, the “Slope normalized repl1” value (500 µM compound) was 0.7992 and the “Slope normalized repl2” value (500 µM compound) was 0.7957.
